Experiments:
[1] = Example 7: serum testosterone lowering in healthy men; type: in vivo; details: male, human, plasma, oral, maintenance doses of 80 mg or greater
[2] = tested on: patients with intermediate-risk prostate cancer; test: Example 9: quality of life (EORTC QLQ-C30, QLQ-PR25, AMS); type: in vivo, human
Experimental: Eligible male patients were aged ≥18 years with a histologically confirmed diagnosis of localized, intermediate-risk prostate cancer, for whom 6-month neoadjuvant and adjuvant androgen deprivation therapy (ADT) to external beam radiation therapy (EBRT) was indicated. The criteria for establishing intermediate-risk prostate cancer included the presence of one of the following, without any high-risk feature: T2b-T2c disease, Gleason score 7, or prostate-specific antigen (PSA) 10-20 ng/mL. Additional inclusion criteria included: EBRT scheduled to begin ≥12 weeks after baseline visit; screening serum testosterone >150 ng/dL (5.2 nmol/L); screening PSA concentration >2 ng/ml; body mass index ≥18.0 at screening or baseline (i.e., the subject's BMI prior to treatment commencing); Eastern Cooperative Oncology Group performance status of 0 or 1 at screening. Based on investigator discretion and clinical assessment of the patient's overall medical and disease status, participation was allowed for older patients with high-risk disease (e.g., based on Gleason score or tumor status) who were deemed likely to benefit from 6 months of neoadjuvant/adjuvant ADT. Most patients had intermediate-risk disease. However, a few patients, based on Gleason score or tumor, node, and metastasis staging system, were technically of higher than intermediate risk.
Both treatment arms received treatment for 24 weeks. Patients remained on treatment for at least 12 weeks before the start of external beam radiation treatment (EBRT), which was initiated for most patients between Week 13, Day 1 and Week 15, Day 1. EBRT began no later than day 1, week 17.
Quality of Life (QoL) was assessed via the core 30-item European Organisation for Research and Treatment of Cancer quality of life questionnaire (EORTC QLQ-C30), the 25-item prostate cancer module EORTC questionnaire (EORTC QLQ-PR25), and the aging male survey (AMS). QoL assessments were completed at screening, on day 1 of weeks 1, 5, 13, and 25, and at weeks 29, 33, and 37.

serum testosterone = test: Example 8: serum testosterone in men with advanced prostate cancer, versus leuprolide acetate; type: in vivo, human
Source text: Eligible men were aged ≥18 years with a histologically confirmed diagnosis of prostate adenocarcinoma, and were candidates for ADT for the management of hormone-sensitive prostate cancer with one of the following clinical disease states: advanced localized disease not suitable for primary surgical or radiation therapy; evidence of PSA biochemical or clinical relapse following primary surgery or radiation therapy of curative intent; or newly diagnosed metastatic disease that was asymptomatic and without visceral involvement. […] Patients with advanced, localized MON1 or M1 disease with clinically significant symptoms or visceral involvement, who required immediate GnRH therapy, chemotherapy, or radiation therapy were not eligible for the trial.
Serum testosterone levels were measured at each visit.

[3] = from baseline (day 1) to week 25
[4] = Compound 1 80 or 120 mg QD after 320 mg load
[5] = Compound 1 Total, End of Treatment
[6] = Compound 1 Total, Week 49, Day 1

CONC(=O)Nc1ccc(-c2sc3c(c2CN(C)C)c(=O)n(-c2ccc(OC)nn2)c(=O)n3Cc2c(F)cccc2F)cc1 [Compound 1, N-(4-(1-(2,6-difluorobenzyl)-5-((dimethylamino)methyl)-3-(6-methoxy-3-pyridazinyl)-2,4-dioxo-1,2,3,4-tetrahydrothieno[2,3-d]pyrimidin-6-yl)phenyl)-N′-methoxyurea]
concentration at 28 days [1]: > 4 ng/mL | Hormonal treatment-related symptoms, Mean (SD) change [2, 3]: 13.4 (12.1) | Sexual activity, Mean (SD) change [2, 3]: −19.7 (29.4) | Global health/QoL, Mean (SD) change ([2]; from baseline to week 36 (EOS)): −7.7 (17.8) | Hormonal treatment-related symptoms, Mean (SD) change ([2]; from baseline to week 36 (EOS)): 8.5 (11.3) | Sexual activity, Mean (SD) change ([2]; from baseline to week 36 (EOS)): −7.3 (30.0) | Global health/QoL, Mean (SD) change ([2]; from week 25 to week 36): 2.3 (16.6) | Hormonal treatment-related symptoms, Mean (SD) change ([2]; from week 25 to week 36): −5.0 (10.3) | Sexual activity, Mean (SD) change ([2]; from week 25 to week 36): 12.1 (21.8) | QOL (AMS and sexual activity scores) from EOT through EOS ([2]; in vivo): appeared to improve more in the Compound 1 than the degarelix group | Testosterone Mean (Std Dev) (serum testosterone; 80 mg QD, Baseline): 13.755 (4,7256) nmol/L | Testosterone Median (serum testosterone; 80 mg QD, Baseline): 12.700 nmol/L | Testosterone Mean (Std Dev) (serum testosterone; 80 mg QD, End of Study): 6.933 (6.4298) nmol/L | Testosterone Median (serum testosterone; 80 mg QD, End of Study): 5.340 nmol/L | Testosterone Mean (Std Dev) (serum testosterone; 80 mg QD, End of Treatment): 7.211 (9.2178) nmol/L | Testosterone Median (serum testosterone; 80 mg QD, End of Treatment): 3.125 nmol/L | Testosterone Mean (Std Dev) (serum testosterone; 80 mg QD, Follow-Up): 11.004 (5.9971) nmol/L | Testosterone Median (serum testosterone; 80 mg QD, Follow-Up): 13.185 nmol/L | Testosterone Median (serum testosterone; 80 mg QD, Week 49, Day 1): 0.380 nmol/L | Testosterone Median (serum testosterone; 120 mg QD, Baseline): 14.350 nmol/L | Median testosterone (serum testosterone; 120 mg QD, EOS (12 weeks after stopping)): 322.8 ng/dL | Median testosterone (serum testosterone; 120 mg QD, EOT (4 weeks after end of treatment)): 72.9 ng/dL | Testosterone Mean (Std Dev) (serum testosterone; 120 mg QD, End of Study): 9.565 (7.6479) nmol/L | Testosterone Median (serum testosterone; 120 mg QD, End of Study): 11.210 nmol/L | Testosterone Mean (Std Dev) (serum testosterone; 120 mg QD, End of Treatment): 3.592 (3.7809) nmol/L | Testosterone Median (serum testosterone; 120 mg QD, End of Treatment): 2.530 nmol/L | Testosterone Median (serum testosterone; 120 mg QD, Follow-Up): 11.450 nmol/L | Median testosterone (serum testosterone; 120 mg QD, Follow-up visit (8 weeks after stopping)): 329.8 ng/dL | Testosterone Mean (Std Dev) (serum testosterone; 120 mg QD, Week 49, Day 1): 0.443 (0.2745) nmol/L | Testosterone Median (serum testosterone; 120 mg QD, Week 49, Day 1): 0.365 nmol/L | serum testosterone after stopping treatment (serum testosterone; 4 weeks after the end of treatment): > 50 ng/dL | visit by which average serum testosterone decreased below medical castration threshold of 50 ng/dL (serum testosterone; [4]): Day 4 | visit by which average serum testosterone decreased below profound castration threshold of 20 ng/dL (serum testosterone; [4]): Week 5 Day 1 | Testosterone Mean (Std Dev) (serum testosterone; Compound 1 Total, Baseline): 14.4 nmol/L | Testosterone Median (serum testosterone; Compound 1 Total, Baseline): 13.600 nmol/L | Testosterone Mean (Std Dev) (serum testosterone; Compound 1 Total, End of Study): 8.249 (7.0702) nmol/L | Testosterone Median (serum testosterone; Compound 1 Total, End of Study): 7.425 nmol/L | Testosterone Mean (Std Dev) (serum testosterone; [5]): 5.039 (6.6432) nmol/L | Testosterone Median (serum testosterone; [5]): 2.530 nmol/L | Testosterone Mean (Std Dev) (serum testosterone; Compound 1 Total, Follow-Up): 12.094 (5.9829) nmol/L | Testosterone Median (serum testosterone; Compound 1 Total, Follow-Up): 11.970 nmol/L | Testosterone Mean (Std Dev) (serum testosterone; [6]): 0.487 (0.3867) nmol/L | Testosterone Median (serum testosterone; [6]): 0.380 nmol/L | median serum testosterone (serum testosterone; Compound 1 groups, weeks 5-49): < 20 ng/dL | testosterone surge or tumor flare after treatment initiation (serum testosterone; in vivo): No serum testosterone surge or resultant tumor flare occurred
